# Measurements reported in US20210188856A1, “CRYSTAL FORM OF HYDROCHLORIDE OF PYRAZOLOHETEROARYL DERIVATIVE AND PREPARATION METHOD” (JIANGSU HENGRUI MEDICINE CO., LTD., priority 2018, published 2021).
# Assay: Influencing factors stability (heating, light illumination, high humidity; spread and uncovered, 20 days)
# Type: physicochemical
# Conditions: for Maximum single impurity / Purity / Total impurities: monohydrochloride
# Experimental: Example 6: the crystal form I of the dihydrochloride salt of the compound represented by formula (I) (example 1) was spread and uncovered, and the steadily of the sample was evaluated under heating (40° C., 60° C.), light illumination (4500 Lux), and high humidity (RH 75%, RH 90%) with a period of 20 days.
# (§1) Example 10: the crystal form A (example 7) of the monohydrochloride salt of the compound of formula (I) was spread and uncovered, and the stability of the sample was evaluated under heating (40° C., 60° C.), light illumination (4500 Lux), high humidity (RH 75%, RH 90%) conditions with a period of 20 days.
# as §1, with “Example 11:” for “Example 10:”, “form B” for “form A (example 7)”, “compound represented by” for “compound of”, “(I) (example 8)” for “(I)”
# as §1, with “Example 12:” for “Example 10:”, “form C” for “form A (example 7)”, “compound represented by” for “compound of”, “(I) (example 9)” for “(I)”
# [1] = light illumination (4500 Lux), 4 days
# [2] = light illumination (4500 Lux), 10 days
# [3] = light illumination (4500 Lux), 20 days
compound,measurement,setting,value
"CCCCOc1nc(N)c2cnn(Cc3ccc(CN4CCCC4)cc3)c2n1.Cl [crystal form A, 6-butoxy-1-(4-(pyrrolidin-1-ylmethyl)benzyl)-1H-pyrazolo[3,4-d]pyrimidin-4-amine monohydrochloride]",Maximum single impurity,0 day,0.09%
same,Purity,0 day,99.74%
same,Total impurities,0 day,0.26%
same,Maximum single impurity,"40° C., 4 days",0.09%
same,Purity,"40° C., 4 days",99.72%
same,Total impurities,"40° C., 4 days",0.28%
same,Maximum single impurity,"40° C., 10 days",0.06%
same,Purity,"40° C., 10 days",99.72%
same,Total impurities,"40° C., 10 days",0.28%
same,Maximum single impurity,"40° C., 20 days",0.06%
same,Purity,"40° C., 20 days",99.70%
same,Total impurities,"40° C., 20 days",0.30%
same,Maximum single impurity,"60° C., 4 days",0.08%
same,Purity,"60° C., 4 days",99.72%
same,Total impurities,"60° C., 4 days",0.28%
same,Maximum single impurity,"60° C., 10 days",0.06%
same,Purity,"60° C., 10 days",99.75%
same,Total impurities,"60° C., 10 days",0.25%
same,Maximum single impurity,"60° C., 20 days",0.06%
same,Purity,"60° C., 20 days",99.70%
same,Total impurities,"60° C., 20 days",0.30%
same,Maximum single impurity,"75% RH, 4 days",0.09%
same,Purity,"75% RH, 4 days",99.72%
same,Total impurities,"75% RH, 4 days",0.28%
same,Maximum single impurity,"75% RH, 10 days",0.06%
same,Purity,"75% RH, 10 days",99.74%
same,Total impurities,"75% RH, 10 days",0.26%
same,Maximum single impurity,"75% RH, 20 days",0.08%
same,Purity,"75% RH, 20 days",99.68%
same,Total impurities,"75% RH, 20 days",0.32%
same,Maximum single impurity,"90% RH, 4 days",0.08%
same,Purity,"90% RH, 4 days",99.72%
same,Total impurities,"90% RH, 4 days",0.28%
same,Maximum single impurity,"90% RH, 10 days",0.06%
same,Purity,"90% RH, 10 days",99.76%
same,Total impurities,"90% RH, 10 days",0.24%
same,Maximum single impurity,"90% RH, 20 days",0.08%
same,Purity,"90% RH, 20 days",99.72%
same,Total impurities,"90% RH, 20 days",0.28%
same,Maximum single impurity,[1],0.09%
same,Purity,[1],99.70%
same,Total impurities,[1],0.30%
same,Maximum single impurity,[2],0.06%
same,Purity,[2],99.75%
same,Total impurities,[2],0.25%
same,Maximum single impurity,[3],0.08%
same,Purity,[3],99.63%
same,Total impurities,[3],0.37%
same,stability under the influencing factor conditions (in words),"light illumination, 40° C., 60° C., 75% RH, 90% RH, 20 days",good
